Data on 19 molecules can be found in US20230348442A1, “GALECTIN-3 INHIBITING 2-HYDROXYCYCLOALKANE-1-CARBAMOYL DERIVATIVES” (Idorsia Pharmaceuticals Ltd, priority 2020, published 2023).

The target of the assay is human Gal-3 (hGal-3) (Homo sapiens (Human), UniProt P17931). The assay can be described thus: competitive binding assay: binding of biotinylated hGal-3 to microplate-adsorbed asialofetuin (ASF), spectrophotometric. To be noted: Activity on hGal-3; mean values of several measurements. Summed up: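 Biotinylated hGal-3 (300-1000 ng/mL) bound to ASF-coated wells with serially diluted compound, 3 h at 4° C. After washing, bound protein was detected with streptavidin-peroxidase (80 ng/mL, 1 h, 4° C) and ABTS substrate; IC50 values are means of several measurements.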
Chain of human Gal-3 (hGal-3) (P17931 whole entry): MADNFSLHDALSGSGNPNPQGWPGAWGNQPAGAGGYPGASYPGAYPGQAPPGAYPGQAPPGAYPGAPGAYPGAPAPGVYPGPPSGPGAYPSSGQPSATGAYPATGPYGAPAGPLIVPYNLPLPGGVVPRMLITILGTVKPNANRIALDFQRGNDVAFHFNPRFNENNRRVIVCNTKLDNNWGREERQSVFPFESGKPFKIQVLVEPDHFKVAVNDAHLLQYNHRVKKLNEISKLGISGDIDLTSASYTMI
Consider `CC(=O)O[C@@H]1[C@@H](n2cc(-c3cc(F)c(F)c(F)c3)nn2)[C@@H](O)[C@@H](CO)O[C@H]1C(=O)N(c1cc(Cl)cc(Cl)c1)[C@H]1CCC[C@@H]1O` [Example 1A.1.2, (2R,3R,4S,5R,6R)-2-((3,5-dichlorophenyl)((1S,2S)-2-hydroxycyclopentyl)carbamoyl)-5-hydroxy-6-(hydroxymethyl)-4-(4-(3,4,5-trifluorophenyl)-1H-1,2,3-triazol-1-yl)tetrahydro-2H-pyran-3-yl acetate], for which the IC50 (as a rule, the midpoint of a concentration-inhibition curve) was 23 nM.
The result for `CC(=O)O[C@@H]1[C@@H](n2cc(-c3cc(F)c(F)c(F)c3)nn2)[C@@H](O)[C@@H](CO)O[C@H]1C(=O)N(c1cc(Cl)cc(C#N)c1)[C@H]1CCC[C@@H]1O` [Example 1A.1.4, (2R,3R,4S,5R,6R)-2-((3-chloro-5-cyanophenyl)((1S,2S)-2-hydroxycyclopentyl)carbamoyl)-5-hydroxy-6-(hydroxymethyl)-4-(4-(3,4,5-trifluorophenyl)-1H-1,2,3-triazol-1-yl)tetrahydro-2H-pyran-3-yl acetate] reads 25.3 nM; that for `CC(=O)O[C@@H]1[C@@H](n2cc(-c3cc(F)c(C)c(F)c3)nn2)[C@@H](O)[C@@H](CO)O[C@H]1C(=O)N(c1cc(Cl)cc(Cl)c1)[C@H]1CCC[C@@H]1O` [Example 1A.4.2, (2R,3R,4S,5R,6R)-2-((3,5-dichlorophenyl)((1S,2S)-2-hydroxycyclopentyl)carbamoyl)-4-(4-(3,5-difluoro-4-methylphenyl)-1H-1,2,3-triazol-1-yl)-5-hydroxy-6-(hydroxymethyl)tetrahydro-2H-pyran-3-yl acetate], 12.9 nM.
The result for `CC(=O)O[C@@H]1[C@@H](n2cc(-c3cc(F)c(C)c(F)c3)nn2)[C@@H](O)[C@@H](CO)O[C@H]1C(=O)N(c1cc(Cl)cc(C#N)c1)[C@H]1CCC[C@@H]1O` [Example 1A.4.4, (2R,3R,4S,5R,6R)-2-((3-chloro-5-cyanophenyl)((1S,2S)-2-hydroxycyclopentyl)carbamoyl)-4-(4-(3,5-difluoro-4-methylphenyl)-1H-1,2,3-triazol-1-yl)-5-hydroxy-6-(hydroxymethyl)tetrahydro-2H-pyran-3-yl acetate] reads 26.8 nM; that for `CC(=O)O[C@@H]1[C@@H](n2cc(-c3cc(F)c(Cl)c(F)c3)nn2)[C@@H](O)[C@@H](CO)O[C@H]1C(=O)N(c1cc(Cl)cc(Cl)c1)[C@H]1CCC[C@@H]1O` [Example 1A.5.2, (2R,3R,4S,5R,6R)-4-(4-(4-chloro-3,5-difluorophenyl)-1H-1,2,3-triazol-1-yl)-2-((3,5-dichlorophenyl)((1S,2S)-2-hydroxycyclopentyl)carbamoyl)-5-hydroxy-6-(hydroxymethyl)tetrahydro-2H-pyran-3-yl acetate], 19.8 nM.
The result for `CC(=O)O[C@@H]1[C@@H](n2cc(-c3cc(F)c(Cl)c(F)c3)nn2)[C@@H](O)[C@@H](CO)O[C@H]1C(=O)N(c1cc(Cl)cc(C#N)c1)[C@H]1CCC[C@@H]1O` [Example 1A.5.4, (2R,3R,4S,5R,6R)-4-(4-(4-chloro-3,5-difluorophenyl)-1H-1,2,3-triazol-1-yl)-2-((3-chloro-5-cyanophenyl)((1S,2S)-2-hydroxycyclopentyl)carbamoyl)-5-hydroxy-6-(hydroxymethyl)tetrahydro-2H-pyran-3-yl acetate] reads 16.4 nM; that for `N#Cc1cc(Cl)cc(N(C(=O)[C@@H]2O[C@H](CO)[C@H](O)[C@H](n3cc(-c4cc(F)c(F)c(F)c4)nn3)[C@H]2O)[C@H]2CCC[C@@H]2O)c1` [Example 1H.1.4, (2R,3R,4S,5R,6R)-N-(3-chloro-5-cyanophenyl)-3,5-dihydroxy-N-((1S,2S)-2-hydroxycyclopentyl)-6-(hydroxymethyl)-4-(4-(3,4,5-trifluorophenyl)-1H-1,2,3-triazol-1-yl)tetrahydro-2H-pyran-2-carboxamide], 28.9 nM; that for `Cc1c(F)cc(-c2cn([C@H]3[C@@H](O)[C@@H](CO)O[C@@H](C(=O)N(c4cc(Cl)cc(Cl)c4)[C@H]4CCC[C@@H]4O)[C@@H]3O)nn2)cc1F` [Example 1H.4.2, (2R,3R,4S,5R,6R)-N-(3,5-dichlorophenyl)-4-(4-(3,5-difluoro-4-methylphenyl)-1H-1,2,3-triazol-1-yl)-3,5-dihydroxy-N-((1S,2S)-2-hydroxycyclopentyl)-6-(hydroxymethyl)tetrahydro-2H-pyran-2-carboxamide], 22.7 nM.
The molecule `Cc1c(F)cc(-c2cn([C@H]3[C@@H](O)[C@@H](CO)O[C@@H](C(=O)N(c4cc(Cl)cc(C#N)c4)[C@H]4CCC[C@@H]4O)[C@@H]3O)nn2)cc1F` [Example 1H.4.4, (2R,3R,4S,5R,6R)-N-(3-chloro-5-cyanophenyl)-4-(4-(3,5-difluoro-4-methylphenyl)-1H-1,2,3-triazol-1-yl)-3,5-dihydroxy-N-((1S,2S)-2-hydroxycyclopentyl)-6-(hydroxymethyl)tetrahydro-2H-pyran-2-carboxamide] displayed an IC50 of 19.3 nM.
`O=C([C@@H]1O[C@H](CO)[C@H](O)[C@H](n2cc(-c3cc(F)c(Cl)c(F)c3)nn2)[C@H]1O)N(c1cc(Cl)cc(Cl)c1)[C@H]1CCC[C@@H]1O` [Example 1H.5.2, (2R,3R,4S,5R,6R)-4-(4-(4-chloro-3,5-difluorophenyl)-1H-1,2,3-triazol-1-yl)-N-(3,5-dichlorophenyl)-3,5-dihydroxy-N-((1S,2S)-2-hydroxycyclopentyl)-6-(hydroxymethyl)tetrahydro-2H-pyran-2-carboxamide]: the 50% inhibitory concentration (IC50) amounted to 14.3 nM.
Next, `CO[C@@H]1[C@@H](n2cc(-c3cc(F)c(F)c(F)c3)nn2)[C@@H](O)[C@@H](CO)O[C@H]1C(=O)N(c1cccc(Cl)c1)[C@H]1CC[C@@H]1O` [Example 2.1.1, (2R,3R,4S,5R,6R)-N-(3-chlorophenyl)-5-hydroxy-N-((1S,2S)-2-hydroxycyclobutyl)-6-(hydroxymethyl)-3-methoxy-4-(4-(3,4,5-trifluorophenyl)-1H-1,2,3-triazol-1-yl)tetrahydro-2H-pyran-2-carboxamide]: 109 nM.
The result for `CO[C@@H]1[C@@H](n2cc(-c3cc(F)c(F)c(F)c3)nn2)[C@@H](O)[C@@H](CO)O[C@H]1C(=O)N(c1cccc(Cl)c1)[C@@H]1CC[C@H]1O` [Example 2.1.1R, (2R,3R,4S,5R,6R)-N-(3-chlorophenyl)-5-hydroxy-N-((1R,2R)-2-hydroxycyclobutyl)-6-(hydroxymethyl)-3-methoxy-4-(4-(3,4,5-trifluorophenyl)-1H-1,2,3-triazol-1-yl)tetrahydro-2H-pyran-2-carboxamide] reads 4400 nM; that for `CO[C@@H]1[C@@H](n2cc(-c3cc(F)c(F)c(F)c3)nn2)[C@@H](O)[C@@H](CO)O[C@H]1C(=O)N(c1cc(Cl)cc(Cl)c1)[C@H]1CC[C@@H]1O` [Example 2.1.2, (2R,3R,4S,5R,6R)-N-(3,5-dichlorophenyl)-5-hydroxy-N-((1S,2S)-2-hydroxycyclobutyl)-6-(hydroxymethyl)-3-methoxy-4-(4-(3,4,5-trifluorophenyl)-1H-1,2,3-triazol-1-yl)tetrahydro-2H-pyran-2-carboxamide], 51.8 nM.
Next, `CO[C@@H]1[C@@H](n2cc(-c3cc(F)c(F)c(F)c3)nn2)[C@@H](O)[C@@H](CO)O[C@H]1C(=O)N(c1cc(Cl)cc(Cl)c1)[C@@H]1CC[C@H]1O` [Example 2.1.2R, (2R,3R,4S,5R,6R)-N-(3,5-dichlorophenyl)-5-hydroxy-N-((1R,2R)-2-hydroxycyclobutyl)-6-(hydroxymethyl)-3-methoxy-4-(4-(3,4,5-trifluorophenyl)-1H-1,2,3-triazol-1-yl)tetrahydro-2H-pyran-2-carboxamide]: 110 nM; `CO[C@@H]1[C@@H](n2cc(-c3cc(F)c(F)c(F)c3)nn2)[C@@H](O)[C@@H](CO)O[C@H]1C(=O)N(c1cc(C)cc(Cl)c1)[C@H]1CC[C@@H]1O` [Example 2.1.3, (2R,3R,4S,5R,6R)-N-(3-chloro-5-methylphenyl)-5-hydroxy-N-((1S,2S)-2-hydroxycyclobutyl)-6-(hydroxymethyl)-3-methoxy-4-(4-(3,4,5-trifluorophenyl)-1H-1,2,3-triazol-1-yl)tetrahydro-2H-pyran-2-carboxamide]: 118 nM; `CO[C@@H]1[C@@H](n2cc(-c3cc(F)c(F)c(F)c3)nn2)[C@@H](O)[C@@H](CO)O[C@H]1C(=O)N(c1cc(C)cc(Cl)c1)[C@@H]1CC[C@H]1O` [Example 2.1.3R, (2R,3R,4S,5R,6R)-N-(3-chloro-5-methylphenyl)-5-hydroxy-N-((1R,2R)-2-hydroxycyclobutyl)-6-(hydroxymethyl)-3-methoxy-4-(4-(3,4,5-trifluorophenyl)-1H-1,2,3-triazol-1-yl)tetrahydro-2H-pyran-2-carboxamide]: 258 nM.
`CO[C@@H]1[C@@H](n2cc(-c3cc(F)c(F)c(F)c3)nn2)[C@@H](O)[C@@H](CO)O[C@H]1C(=O)N(c1cc(Cl)cc(C#N)c1)[C@H]1CC[C@@H]1O` [Example 2.1.4, (2R,3R,4S,5R,6R)-N-(3-chloro-5-cyanophenyl)-5-hydroxy-N-((1S,2S)-2-hydroxycyclobutyl)-6-(hydroxymethyl)-3-methoxy-4-(4-(3,4,5-trifluorophenyl)-1H-1,2,3-triazol-1-yl)tetrahydro-2H-pyran-2-carboxamide] registered an IC50 of 78.8 nM.
The result for `CO[C@@H]1[C@@H](n2cc(-c3cc(F)c(F)c(F)c3)nn2)[C@@H](O)[C@@H](CO)O[C@H]1C(=O)N(c1cc(Cl)cc(C#N)c1)[C@@H]1CC[C@H]1O` [Example 2.1.4R, (2R,3R,4S,5R,6R)-N-(3-chloro-5-cyanophenyl)-5-hydroxy-N-((1R,2R)-2-hydroxycyclobutyl)-6-(hydroxymethyl)-3-methoxy-4-(4-(3,4,5-trifluorophenyl)-1H-1,2,3-triazol-1-yl)tetrahydro-2H-pyran-2-carboxamide] reads 390 nM.
The result for `CO[C@@H]1[C@@H](n2cc(-c3cc(F)c(F)c(F)c3)nn2)[C@@H](O)[C@@H](CO)O[C@H]1C(=O)N(c1cc(Br)cc(C#N)c1)[C@H]1CC[C@@H]1O` [Example 2.1.5, (2R,3R,4S,5R,6R)-N-(3-bromo-5-cyanophenyl)-5-hydroxy-N-((1S,2S)-2-hydroxycyclobutyl)-6-(hydroxymethyl)-3-methoxy-4-(4-(3,4,5-trifluorophenyl)-1H-1,2,3-triazol-1-yl)tetrahydro-2H-pyran-2-carboxamide] reads 44.5 nM.
